According to patent publication US20240415989A1, “RADIOLABELED COMPOUND, AND PRECURSOR COMPOUND THEREOF, PREPARATION METHOD THEREFOR, AND APPLICATION THEREOF” (priority 2021, published 2024):

Columns and labels:
plasma protein = format: in vitro ADME; settings: human
Method: 1 mL of fresh human plasma anticoagulated with heparin was taken for later use. Three EP tubes were taken and numbered as A-(1), A-(2), and A-(3), and were each added with 0.1 ml of fresh human plasma and 0.25 ml of freshly prepared ^68Ga-DOTA-ibandronic acid with about 0.5 mci. Then they were incubated in a metal bath at 37° C. for 30 minutes. Three 5 ml centrifuge tubes were taken and numbered as B-(1), B-(2), and B-(3). The incubated solutions were transferred to the corresponding centrifuge tubes, respectively. Then 1 ml of 25% trichloroacetic acid solution was added to each centrifuge tube, mixed thoroughly, then centrifuged at 2000 r/min for 5 minutes. The supernatants were respectively collected into 3 corresponding test tubes (numbered as C-(1), C-(2), C-(3), respectively). The centrifugation and supernatant collection were repeated 3 times. The total radioactivity count of the precipitations in the centrifuge tubes and that of the supernatants in the test tubes were measured by a γ counter, respectively, and the plasma protein binding rate (PPB) was calculated.

[1] = In vitro stability in normal saline (radiochemical purity by TLC); format: physicochemical
Method: Four EP tubes were taken and marked as numbers (1) to (4) in sequence, in which 0.1 ml of normal saline was added to numbers (1) and (2), respectively, 0.1 ml of fresh human serum diluted 10 times was added to numbers (3) and (4), respectively, and then 1.0 mci of freshly prepared ^68Ga-DOTA-ibandronic acid was added to these 4 tubes, respectively. Numbers (1) and (3) were placed at room temperature (25±2° C.) and numbers (2) and (4) were placed in a 37° C. metal bath for incubation. The radiochemical purity values of numbers (1) to (4) were measured using a thin layer paper chromatography (TLC) at 10 min, 30 min, 1 h, 2 h, 3 h, 4 h, respectively.

[2] = Lipid-water distribution coefficient (n-octanol/deionized water); format: physicochemical
Method: Three 5 ml centrifuge tubes were taken, and numbered as A-(1), A-(2) and A-(3), respectively. 0.5 ml of n-octanol, 0.485 ml of deionized water and 0.25 ml of freshly prepared ^68Ga-DOTA-ibandronic acid with about 0.5 mci were added to each tube, and the centrifuge tubes were shaken by a vortex mixer for 20 minutes, then centrifuged at 2000 r/min for 5 minutes, from which 0.1 ml of upper liquid (organic phase) was respectively collected into 3 corresponding test tubes (numbered as B-(1), B-(2), B-(3), respectively), and 0.1 ml of lower liquid (aqueous phase) was respectively collected into 3 corresponding test tubes (numbered as C-(1), C-(2), C-(3), respectively). The total radioactivity count of the organic phase and that of the aqueous phase were measured by γ counter, respectively, and the lipid-water distribution coefficient lgP was calculated by formula.

[3] = test system: PC-3, H1975, MDA-MB-231 bone metastasis models; assay: Therapeutic effect on tumor-bearing mice, free movement pain behavior scoring; format: in vivo, nude mice
Method: In this experimental example, the therapeutic effects of ^177Lu-DOTA-ibandronic acid of the present disclosure on tumor-bearing mice (PC-3, H1975, MDA-MB-231 bone metastasis models) were investigated. The ^177Lu-DOTA-ibandronic acid used in this experimental example was prepared according to the method of Example 6.
(1) Establishment of tumor-bearing mouse models: 24 SPF male nude mice and 12 SPF female nude mice were taken, and anesthetized with isoflurane. Then the skin around the left knee joint was disinfected, and the left hind limb was bent. An insulin needle (29G needle) was inserted into the tibia vertically from concave point of the articular fossa of the tibia, slowly rotated and inserted into the medullary cavity, to inject 25 μl of cell culture (approximately 2×10^6) of PC-3 (12 males), H1975 (12 males), and MDA-MB-231 (12 females). Then disinfection was carried out, and the holes were sealed with sterile bone wax. The animals were placed on a 37° C. hot-plate for rewarming. After resuscitation, they were returned to the cage and continued to be raised.
(2) Testing of tumor-bearing mouse models: After 4 weeks of inoculation, 36 nude mice were scanned using Micro-CT, respectively.
(3) Methods of different treatments and grouping: The 36 successfully modelled tumor-bearing mice were randomly divided into 4 groups. Among them, 2 groups were injected with ^177Lu-DOTA-ibandronic acid with low and high radioactivity (100 μCi, 500 μCi) into the tail vein, respectively, 3 animals in each group; and the animals in the blank control groups were injected with normal saline, and divided into a small volume group and a large volume group (10 μl, 50 μl), 3 animals in each group.
(4) Detection and results of treatment effect: Free movement pain behavior scoring was carried out on days 0, 7, 14, 21, 28, and 35, and used as the main indicator of bone pain relief in the tumor-bearing mice. At the corresponding time points, the tumor-bearing mice were placed in a transparent smooth flat-bottomed plastic box. […]

[4] = high activity 500 μCi, compared with all groups

Question: Which results are given for `CN(CCCCNC(=O)CN1CCN(CC(=O)O)CCN(CC(=O)O)CCN(CC(=O)O)CC1)CCC(O)(P(=O)(O)O)P(=O)(O)O.[68Ga]` [^68Ga-DOTA-ibandronic acid]?
Answer: plasma protein binding rate (PPB) (plasma protein): 81%; Radiochemical purity ([1]; 37° C., 10 min): 99%; Radiochemical purity ([1]; 37° C., 30 min): 96%; Radiochemical purity ([1]; 37° C., 1 h): 96%; Radiochemical purity ([1]; 37° C., 2 h): 92%; Radiochemical purity ([1]; 37° C., 3 h): 90%; Radiochemical purity ([1]; 37° C., 4 h): 87%; Radiochemical purity ([1]; room temperature, 10 min): 98%; Radiochemical purity ([1]; room temperature, 30 min): 97%; Radiochemical purity ([1]; room temperature, 1 h): 95%; Radiochemical purity ([1]; room temperature, 2 h): 95%; Radiochemical purity ([1]; room temperature, 3 h): 95%; Radiochemical purity ([1]; room temperature, 4 h): 93%; lipid-water distribution coefficient lgP [2]: −2.33

Question: Which results are given for `CN(CCCCNC(=O)CN1CCN(CC(=O)O)CCN(CC(=O)O)CCN(CC(=O)O)CC1)CCC(O)(P(=O)(O)O)P(=O)(O)O.[177Lu]` [^177Lu-DOTA-ibandronic acid]?
Answer: therapeutic efficacy versus control group ([3]; different doses (100 μCi, 500 μCi) versus normal saline): higher than that of the corresponding control group; bone pain relief [3, 4]: relieved to the greatest extent; survival rate within 5 weeks of administration [3, 4]: relatively highest
